Test results from BindingDB's records for doi:10.1021/jm00398a022 (University of Wisconsin, 1988).

Molecular target: Cathepsin D (Oryctolagus cuniculus)
Assay: Inhibition of rabbit liver cathepsin D at pH 4.0

A Ki of 3.5 µM was found for `COC(=O)[C@H](Cc1ccccc1)NC(=O)[C@H](CC(C)C)NC(=O)CC(O)[C@H](CC(C)C)NC(=O)[C@H](Cc1c[nH]cn1)NC(=O)COC(=O)C(C)(C)C` (stereo partly drawn) [POA-His-Sta-Leu-PheOMe] in this work.
